Source: US20100093702A1, “METHYLENE AMINES OF THIENO[2,3-d]PYRIMIDINE AND THEIR USE AS ADENOSINE A2a RECEPTOR ANTAGONISTS” (priority 2008, published 2010)
pKi: −log10 of the molar value.

Tests used:
[1] = molecular target: T1, human adenosine A2a receptor (Homo sapiens, UniProt P29274); experiment: Adenosine A2a Receptor Functional Assay (A2AGAL2); assay type: cell-based; conditions: CHO-K1 cells, cAMP inducible beta-galactosidase reporter, 15 nM NECA agonist challenge
T1 construct: expressed in transfected cells; host or cells: CHO-K1
T1 sequence (P29274 whole entry): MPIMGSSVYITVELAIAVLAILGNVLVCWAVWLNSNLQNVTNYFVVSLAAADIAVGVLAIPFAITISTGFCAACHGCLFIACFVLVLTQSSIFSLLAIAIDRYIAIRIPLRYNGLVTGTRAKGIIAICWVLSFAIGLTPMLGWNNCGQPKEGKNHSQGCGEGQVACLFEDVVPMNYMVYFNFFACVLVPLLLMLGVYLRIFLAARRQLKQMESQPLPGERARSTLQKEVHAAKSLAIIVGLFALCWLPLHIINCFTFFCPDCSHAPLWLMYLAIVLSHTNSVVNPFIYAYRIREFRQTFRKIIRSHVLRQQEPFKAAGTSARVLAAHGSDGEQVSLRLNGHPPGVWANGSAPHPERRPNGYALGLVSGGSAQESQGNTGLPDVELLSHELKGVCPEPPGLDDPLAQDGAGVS
Protocol: Adenosine A2a Receptor Functional Assay (A2AGAL2)
To initiate the functional assay, cryopreserved CHO-K1 cells overexpressing the human adenosine A2a receptor and containing a cAMP inducible beta-galactosidase reporter gene were thawed, centrifuged, DMSO containing media removed, and then seeded with fresh culture media into clear 384-well tissue culture treated plates (BD #353961) at a concentration of 10K cells/well. Prior to assay, these plates were cultured for two days at 37° C., 5% CO2, 90% Rh. On the day of the functional assay, culture media was removed and replaced with 45 uL assay medium (Hams/F-12 Modified (Mediatech # 10-080CV) supplemented w/0.1% BSA). Test compounds were diluted and 11 point curves created at a 1000× concentration in 100% DMSO. Immediately after addition of assay media to the cell plates, 50 nL of the appropriate test compound antagonist or agonist control curves were added to cell plates using a Cartesian Hummingbird. Compound curves were allowed to incubate at room temperature on cell plates for approximately 15 minutes before addition of a 15 nM NECA (Sigma E2387) agonist challenge (5 uL volume). A control curve of NECA, a DMSO/Media control, and a single dose of Forskolin (Sigma F3917) were also included on each plate. After additions, cell plates were allowed to incubate at 37° C., 5% CO2, 90% Rh for 5.5-6 hours. After incubation, media was removed, and cell plates were washed 1×50 uL with DPBS w/o Ca & Mg (Mediatech 21-031-CV). Into dry wells, 20 uL of 1× Reporter Lysis Buffer (Promega E3971 (diluted in dH2O from 5× stock)) was added to each well and plates frozen at −20° C. overnight. For β-galactosidase enzyme calorimetric assay, plates were thawed out at room temperature and 20 μL 2× assay buffer (Promega) was added to each well. Color was allowed to develop at 37° C., 5% CO2, 90% Rh for 1-1.5 h or until reasonable signal appeared. The calorimetric reaction was stopped with the addition of 60 μL/well 1M sodium carbonate. Plates were counted at 405 nm on a SpectraMax Microplate Reader (Molecular Devices). Data was analyzed in Microsoft Excel and IC/EC50 curves were fit using a standardized macro.

[2] = molecular target: T2, human adenosine A1 receptor (Homo sapiens, UniProt P30542); experiment: Adenosine A1 Receptor Functional Assay (A1GAL2); assay type: cell-based; conditions: CHO-K1 cells, cAMP inducible beta-galactosidase reporter, 4 nM r-PIA/1 uM Forskolin challenge
T2 construct: expressed in transfected cells; host or cells: CHO-K1
T2 sequence (P30542 1-326): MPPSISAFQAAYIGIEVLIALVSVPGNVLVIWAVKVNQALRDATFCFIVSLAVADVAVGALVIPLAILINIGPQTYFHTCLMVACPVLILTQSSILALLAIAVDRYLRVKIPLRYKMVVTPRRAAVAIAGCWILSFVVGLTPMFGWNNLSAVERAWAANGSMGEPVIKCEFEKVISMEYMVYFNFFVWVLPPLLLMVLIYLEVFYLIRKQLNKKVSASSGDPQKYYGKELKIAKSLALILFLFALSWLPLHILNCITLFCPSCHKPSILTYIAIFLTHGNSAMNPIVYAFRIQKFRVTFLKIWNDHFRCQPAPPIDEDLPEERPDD
Protocol: Adenosine A1 Receptor Functional Assay (A1GAL2)
To initiate the functional assay, cryopreserved CHO-K1 cells overexpressing the human adenosine A1 receptor and containing a cAMP inducible beta-galactosidase reporter gene were thawed, centrifuged, DMSO containing media removed, and then seeded with fresh culture media into clear 384-well tissue culture treated plates (BD #353961) at a concentration of 10K cells/well. Prior to assay, these plates were cultured for two days at 37° C., 5% CO2, 90% Rh. On the day of the functional assay, culture media was removed and replaced with 45 uL assay medium (Hams/F-12 Modified (Mediatech # 10-080CV) supplemented w/0.1% BSA). Test compounds were diluted and 11 point curves created at a 1000× concentration in 100% DMSO. Immediately after addition of assay media to the cell plates, […] of the appropriate test compound antagonist or agonist control curves were added to cell plates using a Cartesian Hummingbird. Compound curves were allowed to incubate at room temperature on cell plates for approximately 15 minutes before addition of a 4 nM r-PIA (Sigma P4532)/1 uM Forskolin (Sigma F3917) agonist challenge (5 uL volume). A control curve of r-PIA in 1 uM Forskolin, a DMSO/Media control, and a single dose of Forskolin were also included on each plate. After additions, cell plates were allowed to incubate at 37° C., 5% CO2, 90% Rh for 5.5-6 hours. After incubation, media was removed, and cell plates were washed 1×50 uL with DPBS w/o Ca & Mg (Mediatech 21-031-CV).
Into dry wells, 20 uL of 1× Reporter Lysis Buffer (Promega E3971 (diluted in dH2O from 5× stock)) was added to each well and plates frozen at −20° C. overnight. For β-galactosidase enzyme calorimetric assay, plates were thawed out at room temperature and 20 μL 2× assay buffer (Promega) was added to each well. Color was allowed to develop at 37° C., 5% CO2, 90% Rh for 1-1.5 h or until reasonable signal appeared. The calorimetric reaction was stopped with the addition of 60 μL/well 1M sodium carbonate. Plates were counted at 405 nm on a SpectraMax Microplate Reader (Molecular Devices). Data was analyzed in Microsoft Excel and IC/EC50 curves were fit using a standardized macro.

Row | SMILES | pKi [1] | pKi [2]
1 | CCc1ccc(-c2nc(N)c3cc(CN4CCOCC4)sc3n2)o1 [Example 8, 2-(5-Ethyl-furan-2-yl)-6-morpholin-4-ylmethyl-thieno[2,3-d]pyrimidin-4-ylamine] | 7.11 | < 6.21
2 | Cc1csc(-c2nc(N)c3cc(CN4[C@H](C)CCC[C@@H]4C)sc3n2)n1 [Example 9, 6-(2,6-Dimethyl-piperidin-1-ylmethyl)-2-(4-methyl-thiazol-2-yl)-thieno[2,3-d]pyrimidin-4-ylamine] | 7.05 | 6.53
3 | CC(C)c1ccc(-c2nc(N)c3cc(CN4[C@H](C)CCC[C@@H]4C)sc3n2)o1 [Example 10, 6-(2,6-Dimethyl-piperidin-1-ylmethyl)-2-(5-isopropyl-furan-2-yl)-thieno[2,3-d]pyrimidin-4-ylamine] | 7.76 | 6.84
4 | CCc1ccc(-c2nc(N)c3cc(CN4[C@H](C)CCC[C@@H]4C)sc3n2)o1 [Example 11, 6-(2,6-Dimethyl-piperidin-1-ylmethyl)-2-(5-ethyl-furan-2-yl)-thieno[2,3-d]pyrimidin-4-ylamine] | 7.60 | 6.71
5 | C[C@@H]1CCC[C@H](C)N1Cc1cc2c(N)nc(-c3ccc(C4CC4)o3)nc2s1 [Example 12, 2-(5-Cyclopropyl-furan-2-yl)-6-(2,6-dimethyl-piperidin-1-ylmethyl)-thieno[2,3-d]pyrimidin-4-ylamine] | 6.94 | 6.48
6 | C[C@@H]1CCC[C@H](C)N1Cc1cc2c(N)nc(-c3ccc(C(C)(C)C)s3)nc2s1 [Example 13, 2-(5-tert-Butyl-thiophen-2-yl)-6-(2,6-dimethyl-piperidin-1-ylmethyl)-thieno[2,3-d]pyrimidin-4-ylamine] | < 5.63 | < 6.03
7 | CC(C)(C)c1ccc(-c2nc(N)c3cc(CN4CCOCC4)sc3n2)s1 [Example 14, 2-(5-tert-Butyl-thiophen-2-yl)-6-morpholin-4-ylmethyl-thieno[2,3-d]pyrimidin-4-ylamine] | < 5.63 | < 6.03
8 | Cc1csc(-c2nc(N)c3cc(CN4CCOCC4)sc3n2)n1 [Example 15, 2-(4-Methyl-thiazol-2-yl)-6-morpholin-4-ylmethyl-thieno[2,3-d]pyrimidin-4-ylamine] | 6.68 | < 6.03
9 | Nc1nc(-c2ccon2)nc2sc(CN3CCOCC3)cc12 [Example 16, 2-Isoxazol-3-yl-6-morpholin-4-ylmethyl-thieno[2,3-d]pyrimidin-4-ylamine] | 5.99 | 6.17
10 | C[C@@H]1CN(Cc2cc3c(N)nc(-c4cccc(C#N)c4)nc3s2)C[C@H](C)O1 [Example 17, 3-[4-Amino-6-(2,6-dimethyl-morpholin-4-ylmethyl)-thieno[2,3-d]pyrimidin-2-yl]-benzonitrile] | 6.82 | 5.97
11 | C[C@@H]1CCC[C@H](C)N1Cc1cc2c(N)nc(-c3ccon3)nc2s1 [Example 18, 6-(2,6-Dimethyl-piperidin-1-ylmethyl)-2-isoxazol-3-yl-thieno[2,3-d]pyrimidin-4-ylamine] | 6.89 | 6.30
12 | C[C@@H]1CCC[C@H](C)N1Cc1cc2c(N)nc(-c3ccc(Br)o3)nc2s1 [Example 19, 2-(5-Bromo-furan-2-yl)-6-(2,6-dimethyl-piperidin-1-ylmethyl)-thieno[2,3-d]pyrimidin-4-ylamine] | 7.92 | 7.40
13 | N#Cc1cccc(-c2nc(N)c3cc(CN4CCCC4c4ccccc4)sc3n2)c1 (stereo not drawn) [Example 20, 3-[4-Amino-6-(2-phenyl-pyrrolidin-1-ylmethyl)-thieno[2,3-d]pyrimidin-2-yl]-benzonitrile] | 6.81 | 6.12
14 | CC(C)c1ccc(-c2nc(N)c3cc(CN4CCOCC4)sc3n2)o1 [Example 21, 2-(5-Isopropyl-furan-2-yl)-6-morpholin-4-ylmethyl-thieno[2,3-d]pyrimidin-4-ylamine] | < 5.87 | < 6.23
15 | Nc1nc(-c2ccc(C3CC3)o2)nc2sc(CN3CCOCC3)cc12 [Example 22, 2-(5-Cyclopropyl-furan-2-yl)-6-morpholin-4-ylmethyl-thieno[2,3-d]pyrimidin-4-ylamine] | 6.02 | < 5.97
16 | C[C@@H]1CCC[C@H](C)N1Cc1cc2c(N)nc(-c3cccc(C#N)c3)nc2s1 [Example 23, 3-[4-Amino-6-(2,6-dimethyl-piperidin-1-ylmethyl)-thieno[2,3-d]pyrimidin-2-yl]-benzonitrile] | 7.19 | 6.33
17 | Nc1nc(-c2nccs2)nc2sc(CN3CCOCC3)cc12 [Example 25, 6-Morpholin-4-ylmethyl-2-thiazol-2-yl-thieno[2,3-d]pyrimidin-4-ylamine] | 6.61 | 5.56
18 | Nc1nc(C2CC2)nc2sc(CN3CCCC3)cc12 [Example 43, 2-Cyclopropyl-6-pyrrolidin-1-ylmethyl-thieno[2,3-d]pyrimidin-4-ylamine] | 6.39 | < 5.00
19 | Nc1nc(-c2cc(F)cc(F)c2)nc2sc(CN3CCOCC3)cc12 [Example 47, 2-(3,5-Difluoro-phenyl)-6-morpholin-4-ylmethyl-thieno[2,3-d]pyrimidin-4-ylamine] | 6.46 | 5.64
20 | Nc1nc(-c2cccc(Cl)c2)nc2sc(CN3CCC(F)CC3)cc12 [Example 48, 2-(3-Chloro-phenyl)-6-(4-fluoro-piperidin-1-ylmethyl)-thieno[2,3-d]pyrimidin-4-ylamine] | 6.13 | 6.07
21 | Nc1nc(-c2cccc(Cl)c2)nc2sc(CN3CCOCC3)cc12 [Example 49, 2-(3-Chloro-phenyl)-6-morpholin-4-ylmethyl-thieno[2,3-d]pyrimidin-4-ylamine] | 6.93 | 6.10
22 | Nc1nc(-c2ccc(F)c(F)c2)nc2sc(CN3CCOCC3)cc12 [Example 50, 2-(3,4-Difluoro-phenyl)-6-morpholin-4-ylmethyl-thieno[2,3-d]pyrimidin-4-ylamine] | 6.44 | 5.54
23 | Nc1nc(-c2cc(F)cc(F)c2)nc2sc(CN3CCC(F)CC3)cc12 [Example 55, 2-(3,5-Difluoro-phenyl)-6-(4-fluoro-piperidin-1-ylmethyl)-thieno[2,3-d]pyrimidin-4-ylamine] | 5.98 | 5.47
24 | Nc1nc(-c2cccc(F)c2)nc2sc(CN3CCSCC3)cc12 [Example 58, 2-(3-Fluoro-phenyl)-6-thiomorpholin-4-ylmethyl-thieno[2,3-d]pyrimidin-4-ylamine] | 7.13 | 6.48
